Data on 24 molecules can be found in US20240083857A1, “2-Methyl-Quinazolines” (Bayer Pharma Aktiengesellschaft, priority 2017, published 2024).

The target in experiment [1] is human SOS1 (nucleotide exchange of K-Ras^G12C) (Homo sapiens, UniProt Q07889). The experiment can be described thus: Biochemical assay 2: K-Ras^G12C activation assay by hSOS1 at high GTP concentration (HTRF). The note with it: high GTP; read-out: Assay 2 (KRAS-Activation by SOS high GTP) activity expressed as IC50.
Experiment [2] concerns the target human SOS1 (loading of human K-Ras^G12C-GDP with fluorescent GTP-analog) (Homo sapiens, UniProt Q07889). The experiment can be described thus: Biochemical assay 3: K-Ras^G12C activation assay by hSOS1 (HTRF). The note with it: no GTP; for IC50: read-out: Assay 3 (KRAS-Activation by SOS no GTP) activity expressed as IC50; for inhibition at 20 µM: read-out: Assay 3 (KRAS-Activation by SOS no GTP) activity expressed as % inhibition at 20 μM. (In general: Time-resolved FRET reads energy transfer from a long-lived donor to a nearby acceptor.)

For orientation: IC50 means the point on the concentration scale where inhibition reaches its midpoint. A word on the inhibition: it is the share of the control response that was lost under treatment.

`CCOc1ccccc1-c1ccc(C(C)Nc2nc(C)nc3cc(OC)c(OC)cc23)s1` (stereo not drawn) [Example 232, N-{1-[5-(2-ethoxyphenyl)thiophen-2-yl]ethyl}-6,7-dimethoxy-2-methylquinazolin-4-amine]: the IC50 in experiment [1] came out at 9.29 µM; in experiment [2], 4.04 µM.
Regarding `COc1cc2nc(C)nc(NC(C)c3ccc(-c4ccc(F)c5ccccc45)s3)c2cc1OC` (stereo not drawn) [Example 233, N-{1-[5-(4-fluoronaphthalen-1-yl)thiophen-2-yl]ethyl}-6,7-dimethoxy-2-methylquinazolin-4-amine], the values for the IC50 in experiment [1] and in experiment [2] were 2 µM and 16.1 µM, respectively.
The corresponding values for `COc1cc2nc(C)nc(NC(C)c3ccc(-c4ccc(F)cc4CN)s3)c2cc1OC` (stereo not drawn) [Example 234, N-[1-{5-[2-(aminomethyl)-4-fluorophenyl]thiophen-2-yl}ethyl]-6,7-dimethoxy-2-methylquinazolin-4-amine] are 0.0654 µM and 0.0921 µM.
The corresponding values for `COc1cc2nc(C)nc(NC(C)c3ccc(C4=CCOCC4)s3)c2cc1OC` (stereo not drawn) [Example 235, N-{1-[5-(3,6-dihydro-2H-pyran-4-yl)thiophen-2-yl]ethyl}-6,7-dimethoxy-2-methylquinazolin-4-amine] are 4.72 µM and 5.27 µM.
The corresponding values for `COc1cc2nc(C)nc(NC(C)c3ccc(-c4ccccc4CN4CCC(N(C)C)C4)s3)c2cc1OC` (stereo not drawn) [Example 238, N-{1-[5-(2-{[3-(dimethylamino)pyrrolidin-1-yl]methyl}phenyl)thiophen-2-yl]ethyl}-6,7-dimethoxy-2-methylquinazolin-4-amine] are 0.217 µM and 0.216 µM.
Regarding `COc1cc2nc(C)nc(NC(C)c3csc(Br)c3)c2cc1OC` (stereo not drawn) [Example 239, N-[1-(5-bromothiophen-3-yl)ethyl]-6,7-dimethoxy-2-methylquinazolin-4-amine], the results for the IC50 in experiment [1] and in experiment [2] were 3.83 µM and 14.3 µM, respectively.
The corresponding values for `COc1cc2nc(C)nc(NC(C)c3ccc(-c4ccccc4C(N)=O)s3)c2cc1OC` (stereo not drawn) [Example 240, 2-(5-{1-[(6,7-dimethoxy-2-methylquinazolin-4-yl)amino]ethyl}thiophen-2-yl)benzamide] are 3.19 µM and 7.57 µM.
The corresponding values for `COc1cc2nc(C)nc(NC(C)c3ccc(-c4cccc(C(N)=O)c4)s3)c2cc1OC` (stereo not drawn) [Example 241, 3-(5-{1-[(6,7-dimethoxy-2-methylquinazolin-4-yl)amino]ethyl}thiophen-2-yl)benzamide] are 1.44 µM and 1.31 µM.
The corresponding values for `COc1cc2nc(C)nc(NC(C)c3ccc(-c4ccc(C(N)=O)cc4)s3)c2cc1OC` (stereo not drawn) [Example 242, 4-(5-{1-[(6,7-dimethoxy-2-methylquinazolin-4-yl)amino]ethyl}thiophen-2-yl)benzamide] are 1.5 µM and 3.01 µM.
Turning to `COc1cc2nc(C)nc(NC(C)c3ccc(-c4ccccc4N)s3)c2cc1OC` (stereo not drawn) [Example 243, N-{1-[5-(2-aminophenyl)thiophen-2-yl]ethyl}-6,7-dimethoxy-2-methylquinazolin-4-amine], the IC50 in experiment [1] amounted to 0.325 µM; in experiment [2], 0.418 µM.
The corresponding values for `COc1cc2nc(C)nc(NC(C)c3ccc(-c4ccccc4CO)s3)c2cc1OC` (stereo not drawn) [Example 244, [2-(5-{1-[(6,7-dimethoxy-2-methylquinazolin-4-yl)amino]ethyl}thiophen-2-yl)phenyl]methanol] are 0.401 µM and 0.444 µM.
The corresponding values for `COc1cc2nc(C)nc(NC(C)c3ccc(-c4ccccc4C#N)s3)c2cc1OC` (stereo not drawn) [Example 245, 2-(5-{1-[(6,7-dimethoxy-2-methylquinazolin-4-yl)amino]ethyl}thiophen-2-yl)benzonitrile] are 0.9 µM and 0.918 µM.
For `COc1cc2nc(C)nc(NC(C)c3ccc(-c4cccc5cn[nH]c45)s3)c2cc1OC` (stereo not drawn) [Example 246, N-{1-[5-(1H-indazol-7-yl)thiophen-2-yl]ethyl}-6,7-dimethoxy-2-methylquinazolin-4-amine], the IC50 in experiment [1] was 4.21 µM. Also, the inhibition at 20 µM in experiment [2] is 44%.
For the molecule `COc1cc2nc(C)nc(NC(C)c3ccc(-c4cccc5[nH]ncc45)s3)c2cc1OC` (stereo not drawn) [Example 247, N-{1-[5-(1H-indazol-4-yl)thiophen-2-yl]ethyl}-6,7-dimethoxy-2-methylquinazolin-4-amine], the IC50 in experiment [1] amounted to 0.867 µM; in experiment [2], 2.7 µM.
The corresponding values for `C=Cc1ccccc1-c1ccc(C(C)Nc2nc(C)nc3cc(OC)c(OC)cc23)s1` (stereo not drawn) [Example 248, N-{1-[5-(2-ethenylphenyl)thiophen-2-yl]ethyl}-6,7-dimethoxy-2-methylquinazolin-4-amine] are 8.08 µM and 8.43 µM.
The corresponding values for `COc1cc2nc(C)nc(NC(C)c3ccc(-c4cnn(CC(N)=O)c4)s3)c2cc1OC` (stereo not drawn) [Example 249, 2-[4-(5-{1-[(6,7-dimethoxy-2-methylquinazolin-4-yl)amino]ethyl}thiophen-2-yl)-1H-pyrazol-1-yl]acetamide] are 5.31 µM and 8.79 µM.
`CNCc1ccccc1-c1ccc(C(C)Nc2nc(C)nc3cc(OC)c(OC)cc23)s1` (stereo not drawn) [Example 250, 6,7-dimethoxy-2-methyl-N-[1-(5-{2-[(methylamino)methyl]phenyl}thiophen-2-yl)ethyl]quinazolin-4-amine]: the values for the IC50 in experiment [1] and in experiment [2] were 0.0581 µM and 0.0704 µM, respectively.
`COc1cc2nc(C)nc(NC(C)c3csc(-c4cnn(CCO)c4)c3)c2cc1OC` (stereo not drawn) [Example 251, 2-[4-(4-{1-[(6,7-dimethoxy-2-methylquinazolin-4-yl)amino]ethyl}thiophen-2-yl)-1H-pyrazol-1-yl]ethanol]: in experiment [1], the IC50 came out at 5.84 µM. Also, the inhibition at 20 µM in experiment [2] was 52%.
Take `COc1cc2nc(C)nc(NC(C)c3ccc(-c4ccccc4CN)s3)c2cc1OC` (stereo not drawn) [Example 252, N-[1-{5-[2-(aminomethyl)phenyl]thiophen-2-yl}ethyl]-6,7-dimethoxy-2-methylquinazolin-4-amine]: the IC50 worked out at 0.0741 µM in experiment [1] and 0.103 µM in experiment [2].
The corresponding values for `COc1cc2nc(C)nc(NC(C)c3csc(-c4cnc5n4CCC5)c3)c2cc1OC` (stereo not drawn) [Example 253, N-{1-[5-(6,7-dihydro-5H-pyrrolo[1,2-a]imidazol-3-yl)thiophen-3-yl]ethyl}-6,7-dimethoxy-2-methylquinazolin-4-amine] are 2.33 µM and 5.8 µM.
On to `COc1cc2nc(C)nc(NC(C)c3csc(-c4cnn(CCN5CCCC5)c4)c3)c2cc1OC` (stereo not drawn) [Example 254, 6,7-dimethoxy-2-methyl-N-[1-(5-{1-[2-(pyrrolidin-1-yl)ethyl]-1H-pyrazol-4-yl}thiophen-3-yl)ethyl]quinazolin-4-amine], for which the values for the IC50 in experiment [1] and in experiment [2] were 1.59 µM and 3.45 µM, respectively.
The corresponding values for `COc1cc2nc(C)nc(NC(C)c3csc(-c4ccc(F)cc4CN)c3)c2cc1OC` (stereo not drawn) [Example 255, N-[1-{5-[2-(aminomethyl)-4-fluorophenyl]thiophen-3-yl}ethyl]-6,7-dimethoxy-2-methylquinazolin-4-amine] are 0.317 µM and 0.39 µM.
The corresponding values for `COc1cc2nc(C)nc(N[C@H](C)c3cccc(-c4cnn(CCO)c4)c3)c2cc1OC` [Example 256, 2-[4-(3-{(1R)-1-[(6,7-dimethoxy-2-methylquinazolin-4-yl)amino]ethyl}phenyl)-1H-pyrazol-1-yl]ethanol] are 0.828 µM and 1.35 µM.
Turning to `COc1cc2nc(C)nc(N[C@H](C)c3cccc(-c4cnn(CCN5CCCC5)c4)c3)c2cc1OC` [Example 257, 6,7-dimethoxy-2-methyl-N-[(1R)-1-(3-{1-[2-(pyrrolidin-1-yl)ethyl]-1H-pyrazol-4-yl}phenyl)ethyl]quinazolin-4-amine], the figures for the IC50 in experiment [1] and in experiment [2] were 0.754 µM and 0.852 µM, respectively.
